≈ marks a conversion by molar mass, not a printed value. Like-named read-outs stand apart in the source and are kept apart here.
What was measured:
[1] = tested on: Fatty Acid Synthase (FASN) gene; test: Inhibition of FASN gene expression (qPCR) in Huh-7 cells; type: cell-based, human; conditions: Homo sapiens, Huh-7, 16 h, Huh-7 cells, starvation medium, 16 hours, qPCR, read-out: FASN IC50
In short: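 Huh-7 cells switched to starvation DMEM (5% LPDS, 2 µM lovastatin, 10 µM mevalonate) and treated 16 h with compound, top 3000 nM, 3-fold dilutions, 5 concentrations. FASN mRNA by RT-qPCR; inhibition relative to DMSO, IC50 from four-parameter fit.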

[2] = Solubility in fasted-state simulated intestinal fluid (FaSSIF); type: physicochemical; conditions: FaSSIF, pH 6.5, fassif, kinetic from dmso stock, FaSSIF pH 6.5, 300 µM sample solution, room temperature
In short: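 Compound from 10.0 mM DMSO stock added to FaSSIF (phosphate/NaCl buffer, pH 6.5) at 300 µM nominal, shaken 1 h at room temperature, 1000 rpm. After centrifugation, supernatant concentration quantified by LC-MS/MS.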

SREBP pathway = test: SREBP luciferase reporter gene system (SRE-luciferase assay); type: cell-based, human; conditions: Homo sapiens, Huh-7, 16 h, Huh-7/SRE-luc cells, sterol-deficient medium, 0.01-10 µM
In short: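 Huh-7 cells stably carrying LDLR promoter-luciferase plus GFP were treated 16 h in sterol-deficient medium (5% lipoprotein-deficient serum, 2 µM lovastatin, 10 µM mevalonic acid) at 0.01–10 µM. Luciferase/GFP ratio measured as pathway activity; inhibition versus DMSO fitted to a four-parameter model for IC50.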

[3] = Metabolic stability experiment of mouse liver microsomes; type: in vitro ADME
Procedure: PB solution (100 mM), MgCl2 solution (300 mM), NADPH solution (2.04 mM), and mouse liver microsome (SHQY catalog number: M1000, batch number: 2110330) solution (1.00 mg/mL) were prepared respectively. […] Then, 100 µL of mouse liver microsome solution was added to a 96-well sample plate. For the 0 min sample, acetonitrile solution containing the internal standard was first added; then, 2 µL of 100 µM working solution was added; followed by the addition of 98 µL of pre-warmed 2.04 mM NADPH at 37°C. For the 5 min, 15 min, 30 min, 45 min, and 60 min samples, 2 µL of 100 µM working solution was first added; followed by the addition of 98 µL of pre-warmed 2.04 mM NADPH at 37°C to initiate the reaction; upon reaching the respective time points, a solution of acetonitrile containing the internal standard was added to terminate the reaction. For the NCF60 sample, 2 µL of 100 µM working solution was first added; followed by the addition of 98 µL of pre-warmed PB at 37°C to initiate the reaction; upon reaching the respective time points, a solution of acetonitrile containing the internal standard was added to terminate the reaction. During the experiment, all samples were incubated in a 37°C water bath. All samples were shaken on an oscillator at 800 rpm for 10 min, then centrifuged at 3200 g for 20 min. The supernatant was aspirated, diluted with deionized water at the corresponding ratio, and analyzed by LC-MS/MS. The remaining percentage of the compound at each time point was obtained by dividing the peak area ratio of the compound at 5, 15, 30, 45, and 60 min by the peak area ratio at 0 min. The half-life (T1/2) of the compound was then calculated using Excel. Table 2: Mouse liver microsome stability results of compounds from some examples

| Structure (SMILES) | IC50 ([1]; class symbols) [nM] | solubility at 1 h [2] [µM] | IC50 (SREBP pathway) [µM] | half-life at 1 µM [3] [h] | IC50 ([1]; numeric value) [nM] |
| --- | --- | --- | --- | --- | --- |
| COc1cccc(F)c1C(O)CCC[C@@H](C)[C@H]1CC[C@H]2[C@H]3[C@H](CC[C@]12C)[C@@]1(C)CC[C@H](O)[C@H](O)[C@@H]1CC3(F)F (stereo partly drawn) [Compound 49, (1R,3aS,3bS,5aR,6R,7S,9aR,9bS,11aR)-4,4-difluoro-1-[(2R)-6-(2-fluoro-6-methoxyphenyl)-6-hydroxyhexan-2-yl]-9a,11a-dimethylhexadecahydro-1H-cyclopenta[1,2-a]phenanthrene-6,7-diol] | 200 to 500 | 281 (≈ 155 µg/mL) | 0.06 | 1.88 |  |
| COc1ccccc1C(O)CCC[C@@H](C)[C@H]1CC[C@H]2[C@H]3[C@H](CC[C@]12C)[C@@]1(C)CC[C@H](O)[C@H](O)[C@@H]1CC3(F)F (stereo partly drawn) [Compound 37, (1R,3aS,3bS,5aR,6R,7S,9aR,9bS,11aR)-4,4-difluoro-1-[(2R)-6-hydroxy-6-(2-methoxyphenyl)hexan-2-yl]-9a,11a-dimethylhexadecahydro-1H-cyclopenta[1,2-a]phenanthrene-6,7-diol] | 200 to 500 | 207 (≈ 111 µg/mL) | 0.03 | 2.19 |  |
| COc1cc(F)ccc1[C@@H](O)CCC[C@@H](C)[C@H]1CC[C@H]2[C@H]3[C@H](CC[C@]12C)[C@@]1(C)CC[C@H](O)[C@H](O)[C@@H]1CC3(F)F [Compound 140, (1R,3aS,3bS,5aR,6R,7S,9aR,9bS,11aR)-4,4-difluoro-1-[(2R,6S)-6-(4-fluoro-2-methoxyphenyl)-6-hydroxyhexan-2-yl]-9a,11a-dimethylhexadecahydro-1H-cyclopenta[1,2-a]phenanthrene-6,7-diol] | < 200 | 178 (≈ 98.4 µg/mL) | 0.11 | 5.35 |  |
| COc1cccc(F)c1[C@@H](O)CCC[C@@H](C)[C@H]1CC[C@H]2[C@H]3[C@H](CC[C@]12C)[C@@]1(C)CC[C@H](O)[C@H](O)[C@@H]1CC3(F)F [Compound 127, (1R,3aS,3bS,5aR,6R,7S,9aR,9bS,11aR)-4,4-difluoro-1-[(2R,6S)-6-(2-fluoro-6-methoxyphenyl)-6-hydroxyhexan-2-yl]-9a,11a-dimethylhexadecahydro-1H-cyclopenta[1,2-a]phenanthrene-6,7-diol] | 200 to 500 | 209 (≈ 116 µg/mL) | 0.07 | 1.87 |  |
| COc1cc(F)ccc1C(O)CCC[C@@H](C)[C@H]1CC[C@H]2[C@H]3[C@H](CC[C@]12C)[C@@]1(C)CC[C@H](O)[C@H](O)[C@@H]1CC3(F)F (stereo partly drawn) [Compound 35, (1R,3aS,3bS,5aR,6R,7S,9aR,9bS,11aR)-4,4-difluoro-1-[(2R)-6-(4-fluoro-2-methoxyphenyl)-6-hydroxyhexan-2-yl]-9a,11a-dimethylhexadecahydro-1H-cyclopenta[1,2-a]phenanthrene-6,7-diol] | 200 to 500 | 160 (≈ 88.4 µg/mL) | 0.051 | > 3.1 |  |
| C[C@H](CCCC(C)(C)O)[C@H]1CC[C@@]2(C)C3=C(CC[C@]12C)[C@@]1(C)CC[C@H](O)C(C)(C)[C@@H]1CC3 [Comparative compound 1, reference compound] |  | 105 (≈ 46.7 µg/mL) | 0.293 | 0.131 | 959 |
| COc1ncccc1C(O)CCC[C@@H](C)[C@H]1CC[C@H]2[C@H]3[C@H](CC[C@]12C)[C@@]1(C)CC[C@H](O)[C@H](O)[C@@H]1CC3(F)F (stereo partly drawn) [Compound 81, (1R,3aS,3bS,5aR,6R,7S,9aR,9bS,11aR)-4,4-difluoro-1-[(2R)-6-(2-methoxypyridin-3-yl)-6-hydroxyhexan-2-yl]-9a,11a-dimethylhexadecahydro-1H-cyclopenta[1,2-a]phenanthrene-6,7-diol] | < 200 | 279 (≈ 150 µg/mL) | 0.11 | 1.91 |  |
| COc1cccc(F)c1[C@H](O)CCC[C@@H](C)[C@H]1CC[C@H]2[C@H]3[C@H](CC[C@]12C)[C@@]1(C)CC[C@H](O)[C@H](O)[C@@H]1CC3(F)F [Compound 128, (1R,3aS,3bS,5aR,6R,7S,9aR,9bS,11aR)-4,4-difluoro-1-[(2R,6R)-6-(2-fluoro-6-methoxyphenyl)-6-hydroxyhexan-2-yl]-9a,11a-dimethylhexadecahydro-1H-cyclopenta[1,2-a]phenanthrene-6,7-diol] | 200 to 500 | 199 (≈ 110 µg/mL) | 0.139 | > 3.1 |  |

Source: patent EP4752152A1, “STEROID COMPOUND, AND PREPARATION METHOD THEREFOR AND USE THEREOF” (Cholesgen (Shanghai) Co.Ltd., priority 2023, dated 2025)
